This is an account of results in patent publication US9278963B2, “Pyrimidine hydroxy amide compounds as histone deacetylase inhibitors” (Acetylon Pharmaceuticals, Inc., priority 2013, dated 2016).

The target of one assay is HDAC6 (Homo sapiens (Human), UniProt Q9UBN7). As to the kind of experiment: HDAC enzyme assay, HDAC6. It is filed as biochemical. The protocol: Compounds for testing were diluted in DMSO to 50 fold the final concentration and a ten point three fold dilution series was made. The compounds were diluted in assay buffer (50 mM HEPES, pH 7.4, 100 mM KCl, 0.001% Tween-20, 0.05% BSA, 20 μM TCEP) to 6 fold their final concentration. The HDAC enzymes (purchased from BPS Biosciences) were diluted to 1.5 fold their final concentration in assay buffer. The tripeptide substrate and trypsin at 0.05 μM final concentration were diluted in assay buffer at 6 fold their final concentration. The final enzyme concentrations used in these assays were 3.3 ng/ml (HDAC1), 0.2 ng/ml (HDAC2), 0.08 ng/ml (HDAC3) and 2 ng/ml (HDAC6). The final substrate concentrations used were 16 μM (HDAC1), 10 μM (HDAC2), 17 μM (HDAC3) and 14 μM (HDAC6).
Five μl of compounds and 20 μl of enzyme were added to wells of a black, opaque 384 well plate in duplicate. Enzyme and compound were incubated together at room temperature for 10 minutes. Five μ1 of substrate was added to each well, the plate was shaken for 60 seconds and placed into a Victor 2 microtiter plate reader. The development of fluorescence was monitored for 60 min and the linear rate of the reaction was calculated. The IC50 was determined using Graph Pad Prism by a four parameter curve fit. The IC50 values obtained for several of the compounds of this invention are found in Table 1.

Assay [1] concerns BE(2)-C neuroblastoma cells. Briefly: Neuroblastoma maturation gene expression, BE(2)-C. It is filed as cell-based. Here is the method: (§1) The following is a quick summary of the HDAC neuroblastoma maturation experiments. Adherent cells were plated into 12- or 24-well plates at 10^6 cells/well and allowed to adhere for 2-4 hours. Compounds were dispensed in DMSO at the indicated concentrations using an automated liquid handling system (Tecan D300) and incubated for the indicated times at 37° C. with 5% CO2. Cells were harvested and RNA extracted using the Qiagen RNeasy Mini Kit according to manufacture protocols. The RNA was quantified and relative expression levels were assessed using the Applied Biosystems TaqMan RNA-to-Ct Kit according to manufacture protocols using the indicated TaqMan probes.
(§2) The protocol for the maturation experiments was as follows. The day before the experiment, the cells were fed in the flask by doubling the media. The cells were then harvested by adding non-enzymatic cell dissociation media and incubating at 37° C. for 15 minutes. The cells were transferred to a 50 ml tube and pipet to create a single-cell suspension. The cells were washed with PBS buffer. The cells were then resuspended in complete media at 5×10^5 cells per ml. Next, 2 ml of cells were transferred to 24- or 12-well plates. The treatment compounds were then dispensed into each well using the D300 liquid handler. The cells were then incubated for the indicated time at 37° C. The cells were harvested by scraping the cells and transferring to a 2 ml tube. The cells were spun to form a pellet. Next, RNA was extracted using the Qiagen RNeasy Mini kit according to manufacture protocols. The RNA concentration was recorded. The relative RNA levels were assessed using the Applied Biosystems TaqMan RNA-to-Ct kit according to manufacture protocols using the indicated Taqman probes.

Assay [2] addresses T1, HDAC2 (Homo sapiens (Human), UniProt Q92769). As to the kind of experiment: HDAC enzyme assay, HDAC2. Format: biochemical.
Assay [3] concerns the target T1, HDAC2. As to the kind of experiment: HDAC2glo assay. It is filed as cell-based.
Assay [4] relates to SH-SY5Y neuroblastoma cells. Briefly: Neuroblastoma maturation gene expression, SH-SY5Y. To be noted: 2 days, 3 μM. It is filed as cell-based. The protocol: as §1
as §2, with “The treatment compounds were then dispensed into each well using the D300 liquid handler. The cells were then incubated for the indicated time at 37° C. The cells were harvested by scraping the cells and transferring to a 2 ml tube. The cells were spun to form a pellet. Next, RNA was extracted using the Qiagen RNeasy Mini kit according to manufacture protocols.” left out

T1 sequence (Q92769 whole entry): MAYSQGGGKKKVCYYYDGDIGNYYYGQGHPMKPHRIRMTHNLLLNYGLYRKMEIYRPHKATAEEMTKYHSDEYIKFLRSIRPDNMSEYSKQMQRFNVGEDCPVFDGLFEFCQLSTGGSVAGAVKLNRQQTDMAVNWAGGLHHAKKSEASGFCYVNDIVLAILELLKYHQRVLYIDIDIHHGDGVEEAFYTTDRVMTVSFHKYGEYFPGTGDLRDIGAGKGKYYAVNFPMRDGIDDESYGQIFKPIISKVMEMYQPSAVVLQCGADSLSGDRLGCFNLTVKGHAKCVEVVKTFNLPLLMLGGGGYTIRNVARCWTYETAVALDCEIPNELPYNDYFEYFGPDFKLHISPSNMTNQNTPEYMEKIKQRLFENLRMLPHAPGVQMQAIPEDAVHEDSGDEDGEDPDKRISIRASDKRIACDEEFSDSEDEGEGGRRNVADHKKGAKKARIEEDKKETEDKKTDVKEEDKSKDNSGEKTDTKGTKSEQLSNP
Sequence of HDAC6 (Q9UBN7 whole entry): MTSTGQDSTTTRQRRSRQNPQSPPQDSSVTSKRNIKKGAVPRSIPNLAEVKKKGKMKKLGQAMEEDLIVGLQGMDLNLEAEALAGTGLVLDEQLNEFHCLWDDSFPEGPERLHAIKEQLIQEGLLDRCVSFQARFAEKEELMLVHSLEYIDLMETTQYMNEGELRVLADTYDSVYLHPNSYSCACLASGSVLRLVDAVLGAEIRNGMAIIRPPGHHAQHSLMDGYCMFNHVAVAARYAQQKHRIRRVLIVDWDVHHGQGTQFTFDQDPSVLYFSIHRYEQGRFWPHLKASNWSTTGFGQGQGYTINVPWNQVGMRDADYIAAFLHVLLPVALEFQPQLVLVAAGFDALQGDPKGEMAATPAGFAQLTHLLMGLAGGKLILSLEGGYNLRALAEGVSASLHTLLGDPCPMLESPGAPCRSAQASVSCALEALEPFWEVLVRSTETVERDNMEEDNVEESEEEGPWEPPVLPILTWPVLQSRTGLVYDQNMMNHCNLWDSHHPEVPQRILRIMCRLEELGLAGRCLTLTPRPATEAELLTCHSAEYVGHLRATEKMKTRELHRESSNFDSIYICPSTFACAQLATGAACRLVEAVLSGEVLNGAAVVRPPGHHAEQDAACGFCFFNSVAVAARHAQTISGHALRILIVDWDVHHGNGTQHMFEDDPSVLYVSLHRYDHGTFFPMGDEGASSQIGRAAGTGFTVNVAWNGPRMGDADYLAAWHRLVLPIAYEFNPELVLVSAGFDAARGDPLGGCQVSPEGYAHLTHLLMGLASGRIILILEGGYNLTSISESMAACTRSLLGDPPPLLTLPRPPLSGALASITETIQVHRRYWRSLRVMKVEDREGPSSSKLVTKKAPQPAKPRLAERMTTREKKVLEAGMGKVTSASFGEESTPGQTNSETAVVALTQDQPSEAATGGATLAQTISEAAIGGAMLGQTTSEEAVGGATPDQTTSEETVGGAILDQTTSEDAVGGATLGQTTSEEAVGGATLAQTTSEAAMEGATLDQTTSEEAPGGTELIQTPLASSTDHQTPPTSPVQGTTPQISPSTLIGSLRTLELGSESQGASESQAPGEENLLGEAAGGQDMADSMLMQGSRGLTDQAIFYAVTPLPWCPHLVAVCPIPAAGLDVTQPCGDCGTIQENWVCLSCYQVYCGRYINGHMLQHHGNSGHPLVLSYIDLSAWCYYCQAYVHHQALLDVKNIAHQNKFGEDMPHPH

The IC50 is the point on the concentration scale where inhibition reaches its midpoint. Higher therefore signals weaker potency in that assay. For the compound `O=C(NO)c1cnc(NC2(c3ccccc3)CCN(C(=O)Nc3ccccc3)CC2)nc1` [Compound 001, N-hydroxy-2-((4-phenyl-1-(phenylcarbamoyl)piperidin-4-yl)amino)pyrimidine-5-carboxamide], the IC50 came out at 0.0019 µM against HDAC6 and 0.034 µM on HDAC2 [2]. Besides, the “fold change of genes associated with maturation” value was “induces gene expression changes that are consistent with maturation” in assay [1] (2 days, 3 μM); “induces gene expression changes consistent with maturation at 4 μM, but not at 2 μM or less” in assay [1] (48 hours, 0.5, 2 and 4 μM); “induces gene expression changes that are consistent with maturation” in assay [4]. In addition, the “concentration at which maximal HDAC2 inhibition was reached” value at HDAC2 [3] was 3 to 4 µM.
